Test results: publication PMC12652428, “In Vitro and In Silico Evaluation of a Novel Multifunctional Cyclic Peptide with Antioxidant, Tyrosinase-Inhibitory, and Extracellular Matrix-Modulating Activities” (International Journal of Molecular Sciences, 2025)
Where a SMILES comes first, the peptide text is derived from it.

Columns and labels:
[1] = target: mushroom tyrosinase; assay: Tyrosinase inhibition assay; type: biochemical
Procedure: To assess tyrosinase inhibitory activity, serial dilutions of the synthesized peptide and the positive control, β-arbutin, were prepared. In a 96-well plate, 10 μL of sample solution was mixed with 110 μL of 0.10 M sodium phosphate buffer (pH 6.5), followed by the addition of 10 μL of mushroom tyrosinase solution (1500 U/mL) and 20 μL of 1.50 mM L-tyrosine. The reaction mixture was then incubated at 37 °C for 10 min. The absorbance was measured at an appropriate wavelength (475 nm) using a microplate reader and the percentage of tyrosinase inhibition was calculated using Equation (3).
Tyrosinase inhibition (%):(3) 100−b−b^′/a−a^′×100
(§1) a: Absorbance after reaction of stock solution.
(§2) b: Absorbance after reaction of sample solution.
a′, b′: Absorbance measured by substituting the buffer for mushroom tyrosinase.

[2] = tested on: type I procollagen; assay: Type I procollagen expression (ELISA) in human fibroblasts; type: cell-based
Procedure: ELISA was performed using a Type I Procollagen C-Peptide EIA Kit. Antibody-POD Conjugate solution (100 μL/well) was dispensed into the provided well strips, followed by the addition of 20 μL/well of standard solution or sample. After mixing, the plates were incubated at 37 °C for 3 h. Following incubation, the supernatants were discarded and wells were washed four times with wash buffer. Subsequently, 100 μL/well of Substrate Solution (TMBZ) was added and incubated at room temperature for 15 min, after which 100 μL/well of stop solution was added to terminate the reaction. Absorbance was measured at 450 nm using a multiplate reader. The expression levels of type I procollagen were compared and stimulation rate was calculated according to Equation (5).
Type I Procollagen Expression Promotion Rate (%):(5) 100−b/a×100
(§3) a: Expression of the corrected untreated group.
(§4) b: Expression of the corrected sample treatment group.
(§5) Protein content was measured using a Pierce BCA Protein Assay kit. After cell culture, 20 μL of the culture medium was mixed with 200 μL of the Pierce BCA Protein Assay reagent mixture and incubated at 37 °C for 30 min. The absorbance was then measured at 570 nm. The protein concentration was determined using an Albumin Standard as a reference.

[3] = DPPH radical-scavenging assay
Procedure: To assess the antioxidant activity of the test samples, serial dilutions of the synthesized peptides were prepared, using ascorbic acid as a positive control. Each reaction mixture consisted of 12.5 μL of the sample solution, 50 μL of ethanol, and 62.5 μL of 0.10 mM DPPH solution. The mixtures were incubated for 30 min at 4 °C in the dark. After the reaction, the absorbance was measured at 520 nm using a multimode microplate reader. The free radical-scavenging activity (%) was calculated using Equation (2).
Radical-scavenging activity (%):(2) 100−b−b^′/a−a^′×100
as §1, §2
a′, b′: Absorbance measured by substituting the buffer for 0.10 mM DPPH.

[4] = tested on: MMP-1; assay: UV-induced MMP-1 expression inhibition (ELISA) in human dermal fibroblasts CCD-986sk; type: cell-based
Procedure: To evaluate the inhibitory effect on MMP-1 expression, TGF-β1 (10 ng/mL) was used as the positive control. CCD-986sk cells were seeded into 24-well culture plates at a density of 1.5 × 10^4 cells/well and cultured for 24 h in IMDM supplemented with 10% FBS and 1% penicillin–streptomycin. The cells were then incubated in serum-free IMDM for 6 h to induce starvation, washed with 1 mL of DPBS, and irradiated with UV (5 J/cm^2). UV irradiation (5 J/cm^2) was performed under non-cytotoxic conditions previously reported to induce MMP-1 expression. The test samples were diluted in serum-free IMDM, applied to the cells, and incubated for 48 h.
MMP-1 Expression Inhibition (%):(4) 100−b/a×100
as §3, §4, §5

| SMILES | tyrosinase inhibition IC50 (positive control) ([1]; tested 31.25 to 500 μg/mL, L-tyrosine substrate, pH 6.5, 37 °C, 10 min, 475 nm) [µg/mL] | type I procollagen expression, higher than positive control TGF-β1 ([2]; 400 μg/mL, compared with TGF-β1) | increase in type I procollagen expression vs untreated control ([2]; 400 μg/mL, human fibroblasts, ELISA (Procollagen Type I C-Peptide EIA), p < 0.05) | type I procollagen increase compared with TGF-β1 ([2]; 400 µg/mL, same experimental conditions) | type I procollagen expression ([2]; 100–400 μg/mL, p < 0.05) | DPPH radical scavenging rate ([3]; 200 μg/mL, 30 min at 4 °C in the dark, 520 nm) [%] | DPPH scavenging, concentration dependence ([3]; 3.13 to 200 μg/mL, p < 0.05) | DPPH radical scavenging activity ([3]; concentrations above 25 μg/mL, 30 min at 4 °C in the dark, 520 nm) | inhibition of MMP-1 expression ([4]; 400 μg/mL, UV 5 J/cm^2, 48 h, CCD-986sk, ELISA, vs UV-treated control) [%] | MMP-1 inhibition compared with TGF-β1 ([4]; 400 µg/mL, same experimental conditions, TGF-β1 10 ng/mL) | UV-induced MMP-1 expression ([4]; 200–400 μg/mL, vs UV-treated control, p < 0.05) | MMP-1 expression inhibition IC50 ([4]; n = 5, UV 5 J/cm^2, 48 h, CCD-986sk, ELISA) [µg/mL] | tyrosinase inhibition rate ([1]; 800 μg/mL, L-tyrosine substrate, pH 6.5, 37 °C, 10 min, 475 nm) [%] | tyrosinase inhibition, concentration dependence ([1]; 12.50 to 800 μg/mL, p < 0.05) | tyrosinase inhibition compared with β-arbutin ([1]; comparable concentrations) | IC50 ([1]; n = 3, L-tyrosine substrate, pH 6.5, 37 °C, 10 min, 475 nm, molar value printed beside 104.2 µg/mL) [µM] | tyrosinase inhibition IC50 ([1]; n = 3, L-tyrosine substrate, pH 6.5, 37 °C, 10 min, 475 nm, tested 12.50 to 800 μg/mL) [µg/mL] |
| --- | --- | --- | --- | --- | --- | --- | --- | --- | --- | --- | --- | --- | --- | --- | --- | --- | --- |
| OC[C@H]1O[C@@H](Oc2ccc(O)cc2)[C@H](O)[C@@H](O)[C@@H]1O [β-arbutin, reference compound] | 160.12 |  |  |  |  |  |  |  |  |  |  |  |  |  |  |  |  |
| N=C(N)NCCC[C@@H]1NC(=O)[C@H](CO)NC(=O)CNC(=O)[C@H](Cc2ccc(O)cc2)NC(=O)[C@H](CS)NC1=O [CR5, cyclic CYGSR] (cyclo(CYGSR)) |  | approximately 30.12% | approximately 44.68% | stronger efficacy than TGF-β1 | promoted type I procollagen expression in a concentration-dependent manner | 83.18 | concentration-dependent scavenging effects | more than 50% | 73.55 | stronger efficacy than TGF-β1 | significantly reduced MMP-1 expression | 261.3 ± 12.0 | 97.79 | concentration-dependent inhibition | stronger tyrosinase inhibition than β-arbutin | 184 ± 9.4 | 104.2 ± 5.3 |
